What follows are substances tested on mAb 806 binding to immobilized 1-501 EGFR fragment (assay: ELISA, peptide inhibition of mAb […] binding to 1-501 EGFR). Conditions: peptide in solution, increasing concentrations.
Design: species or system human

inhibition of mAb […] binding to immobilized 1-501 fragment (ELISA)	Substance
did not inhibit	CGADSYEMEEDG (epitope peptide) [287-298 EGFR peptide]

Each substance was assayed on mAb 806 binding to immobilized 501-Fc (assay: ELISA, peptide inhibition of mAb […] binding to 501-Fc). Conditions: increasing concentrations of peptide.
Design: species or system human

inhibition of mAb […] binding to 501-Fc (ELISA)	Substance
incapable of inhibiting	EEGVRKC (epitope peptide) [C-terminal (EEGVRKC), C-terminal fragment from cyanogen bromide cleavage of the 287-302 peptide]
incapable of inhibiting	CGADSYEM (epitope peptide) [N-terminal fragment from cyanogen bromide cleavage of the 287-302 peptide]

The substances below were run on mAb 806 binding to immobilized 287-302 EGFR peptide (assay: BIAcore, soluble EGFR peptides blocking mAb […] binding). Conditions: mAb […] 500 nM; soluble peptide 5 and 10 μM; amine coupling.
Design: species or system human

inhibition of mAb […] binding to immobilized 287-302 EGFR peptide (BIAcore)	Substance
unable to prevent binding	CGADSYEMEEDG (epitope peptide) [287-298 EGFR peptide]
weakly inhibit	CGADSYEMEEDGVRK (epitope peptide) [287-301 EGFR peptide]

Each substance was assayed on mAb 806 (assay: Binding of yeast surface displayed EGFR 273-621 point mutants to mAb […] (flow cytometry)). Conditions: EGFR Mutant (Library), 273-621 on yeast; 75 nM 806.
Design: species or system mouse; key: ++ indicates wild type binding; +, intermediate binding; −, binding equal to negative control
Description: Out of 100 clones sequenced, roughly 20% contained multiple mutations and were omitted from subsequent analysis. […] All mutations are localized to the disulfide-bonded loop between cysteines 287 and 302, as has been previously determined (34). […] To verify the results from the fine epitope mapping library, alanine scanning through site-directed mutagenesis (SDM) was performed on the entire loop 287-302 (TABLE 7, right column). All sites with loss of binding by alanine scanning (287, 293, 298, and 302) correspond to mutants isolated from the library. […] Since an average of 6-7 amino acid substitutions are accessible by single nucleotide mutagenesis, a larger range of physicochemical diversity can be sampled compared to alanine scanning. […] The C287R substitution raises this dissociation constant to 127 nM (68% confidence interval of 103-160 nM), which gives a ΔΔG value of +2.4 kcal/mol when compared to wild-type and, in alanine scanning terms, is an intermediate loss of binding (36).
The epitope mapping library was constructed using the Stratagene GeneMorph® random mutagenesis kit to give a low mutagenesis rate. The template used for library construction was a pCT302 backbone containing EGFR fragment 273-621, with a C283A mutation to prevent disulfide mispairing, inserted for yeast display (27). The PCR products were gel purified and extracted using a Qiagen Qiaquick gel extraction kit. The library was transformed into Saccharomyces cerevisiae strain EBY100 (28) by electroporation (40) and homologous recombination (41) using a Bio-Rad (Richmond, Calif.) Gene Pulser Transfection Apparatus. […] Growth and expression of the library using yeast surface display was performed as previously described (28).
Anti-c-myc chicken IgY fraction was purchased from Molecular Probes (Eugene, Oreg.). An appropriate number of yeast cells (at least 10× library size) were washed with FACS buffer (phosphate buffered saline containing 1 mg/ml bovine serum albumin). The cells were incubated with 4 μg/ml anti-c-myc chicken IgY and the appropriate concentration of mAb for 30 min at 25° C. The cells were then washed with FACS buffer and incubated with 1:25 dilution phycoerythrin-labeled goat anti-mouse IgG (Sigma) and 1:100 dilution Alexa Fluor® 488 goat anti-chicken IgG (Molecular Probes) for 30 min at 4° C. The labeled cells were rinsed, and cell libraries were sorted using a MoFlo FACS machine at the MIT flow cytometry core facility.
Plasmids from the sorted library populations were recovered using Zymoprep™ and sequenced at the MIT Biopolymers Laboratory. Site-directed mutants were made using QuickChange® site-directed mutagenesis (Stratagene). Single clones were transformed into yeast using EZ Yeast Transformation (Zymo Research) and grown in minimal media (yeast nitrogen base, casein hydrolysate, dextrose, and phosphate buffer pH 7.4) overnight. Yeast surface protein expression was induced by transferring to minimal media with galactose and incubating overnight. For each clone, 1×10^6 cells were labeled as before with anti-c-myc chicken IgY, the appropriate mAb, and secondary fluorescent antibodies. Fluorescence data was obtained using a Coulter Epics XL flow cytometer (Beckman-Coulter) and was analyzed using DakoCytomation Summit™ software

mAb […] Binding	Substance
+	R300C: yeast displayed EGFR 273-621 point mutant from library
+	C287R: yeast displayed EGFR 273-621 point mutant from library
+	C287Y: yeast displayed EGFR 273-621 point mutant from library
−	R300P: yeast displayed EGFR 273-621 point mutant from library
−	G298S: yeast displayed EGFR 273-621 point mutant from library
−	C302S: yeast displayed EGFR 273-621 point mutant from library
−	C302G: yeast displayed EGFR 273-621 point mutant from library
+	E293G: yeast displayed EGFR 273-621 point mutant from library

Further lines, the substance ahead of its results:

Substance	mAb […] Binding
C287S: yeast displayed EGFR 273-621 point mutant from library	+
K301E: yeast displayed EGFR 273-621 point mutant from library	+
E293K: yeast displayed EGFR 273-621 point mutant from library	−
C287W: yeast displayed EGFR 273-621 point mutant from library	+
C287G: yeast displayed EGFR 273-621 point mutant from library	+
G298D: yeast displayed EGFR 273-621 point mutant from library	−
C302R: yeast displayed EGFR 273-621 point mutant from library	+
C302Y: yeast displayed EGFR 273-621 point mutant from library	+
D297Y: yeast displayed EGFR 273-621 point mutant from library	+
E293D: yeast displayed EGFR 273-621 point mutant from library	+
C302F: yeast displayed EGFR 273-621 point mutant from library	+

Same assay, conditions: EGFR Mutant (SDM) in loop 287-302, 273-621 on yeast; 75 nM 806

mAb […] Binding	Substance
++	Y292A: yeast displayed EGFR 273-621 site-directed mutant
++	E296A: yeast displayed EGFR 273-621 site-directed mutant
−	V299D: yeast displayed EGFR 273-621 site-directed mutant
−	C302A: yeast displayed EGFR 273-621 site-directed mutant
++	G288A: yeast displayed EGFR 273-621 site-directed mutant
++	D290A: yeast displayed EGFR 273-621 site-directed mutant
++	V299A: yeast displayed EGFR 273-621 site-directed mutant

The next lines start with the substance.

Substance	mAb […] Binding
R300A: yeast displayed EGFR 273-621 site-directed mutant	++
A289K: yeast displayed EGFR 273-621 site-directed mutant	++
M294A: yeast displayed EGFR 273-621 site-directed mutant	++
S291A: yeast displayed EGFR 273-621 site-directed mutant	++
D297A: yeast displayed EGFR 273-621 site-directed mutant	++
C287A: yeast displayed EGFR 273-621 site-directed mutant	+
E293A: yeast displayed EGFR 273-621 site-directed mutant	+
V299K: yeast displayed EGFR 273-621 site-directed mutant	++
K301A: yeast displayed EGFR 273-621 site-directed mutant	++
E295A: yeast displayed EGFR 273-621 site-directed mutant	++
G298A: yeast displayed EGFR 273-621 site-directed mutant	+

Same assay, conditions: wild-type EGFR 273-621 on yeast; 75 nM 806

mAb […] binding score	Substance
++	wild-type 273-621: yeast surface displayed wild-type EGFR fragment 273-621
